Reference: PMC8943889, “Synthetic studies with the brevicidine and laterocidine lipopeptide antibiotics including analogues with enhanced properties and in vivo efficacy” (Chemical Science, 2022)
In brackets after ≈: the same amount, converted by molar mass. Like-named read-outs stand apart in the source and are kept apart here. Positions of bridges follow the written chain, without caps; N, C: chain ends. Non-standard residues stand in square brackets, D forms with d. Residues, ends and D or L forms follow the SMILES beside them. *: point of attachment. Octanoyl(7-Me) = CC(C)CCCCCC(=O)*; dOrn = NCCC[C@@H](N)C(=O)O; Orn = NCCC[C@H](N)C(=O)O

Experiments:
Format in all cases: cell-based
K. pneumoniae 2048 = system: K. pneumoniae 2048
Description: (§1) Minimum inhibitory concentrations (MICs) were determined by broth microdilution according to CLSI guidelines in triplicate. Blood agar plates were inoculated with glycerol stocks of E. coli ATCC 25922, E. coli MCR-1 (clinical isolate from Utrecht Medical Centre, NL), E. coli EQAS MCR-2 (clinical isolate from Wageningen University and Research, NL), K. pneumoniae ATCC 11228, K. pneumoniae ATCC 13883, K. pneumonia 2048 (clnical isolate from Vrije Universiteit Amsterdam Medical Centre, NL), K. pneumonia JS-123 (clinical isolate from Utrecht Medical […]
(§2) (clinical isolate from Rijksinstituut voor Volksgezondheid en Milieu, NL), A. baumannii MDR (clinical isolate from Vrije Universiteit Amsterdam Medical Centre, NL), P. aeruginosa ATCC 27853, P. aeruginosa PAO1, P. aeruginosa NRZ-03961 (Reference strain from Das Nationale Referenzzentrum für gramnegative Krankenhauserreger, DE), P. aeruginosa M-120 (clinical isolate from Leiden University Medical Centre, NL) and S. aureus USA300 (clinical isolate from Texas Children's Hospital, USA). E. coli 25922 MCR1 was grown on LB agar supplemented with kanamycin. The inoculated agar plates were then incubated for 16 h at 37°C . Individually grown colonies were subsequently used to inoculate 3 mL aliquots of TSB that were then incubated at 37°C with shaking at 220 rpm. In parallel, the lipopeptide antibiotics to be assessed were serially diluted with Mueller-Hinton broth (MHB) in polypropylene 96-well plates (50 µL in each well).
(§3) Once the OD600 of the bacterial suspensions reached 0.5, the bacteria were diluted with MHB (final concentration 2 × 10^5 CFU mL−1) and added to the microplates containing the test compounds (50 µL to each well, final volume: 100 µL). The well-plates were sealed with an adhesive membrane and after 16 h of incubation at 37°C with shaking at 220 rpm the wells were visually inspected for bacterial growth. MIC values reported are based on three technical replicates and defined as the lowest concentration of the compound that prevented visible growth of bacteria. […]

E. coli EQAS MCR-2 = conditions: Ec EQAS MCR-2; broth microdilution (CLSI), MHB, 16 h 37 °C, three technical replicates
Description: as §1, §2, §3

P. aeruginosa M-120 = system: P. aeruginosa M-120
Description: as §1, §2, §3

E. coli ATCC 25922 = system: E. coli ATCC 25922
Description: as §1, §2, §3

P. aeruginosa NRZ-03961 = system: P. aeruginosa NRZ-03961
Description: as §1, §2, §3

A. baumannii MDR = conditions: Ab MDR; broth microdilution (CLSI), MHB, 16 h 37 °C, three technical replicates
Description: as §1, §2, §3

K. pneumoniae ATCC 11228 = system: K. pneumoniae ATCC 11228
Description: as §1, §2, §3

P. aeruginosa PAO1 = system: P. aeruginosa PAO1
Description: as §1, §2, §3

A. baumannii ATCC 17961 = system: A. baumannii ATCC 17961
Description: as §1, §2, §3

A. baumannii ATCC 17978 = system: A. baumannii ATCC 17978
Description: as §1, §2, §3

P. aeruginosa ATCC 27853 = system: P. aeruginosa ATCC 27853
Description: as §1, §2, §3

S. aureus USA300 = system: S. aureus USA300
Description: as §1, §2, §3

K. pneumoniae ATCC 13883 = system: K. pneumoniae ATCC 13883
Description: as §1, §2, §3

K. pneumoniae JS-123 = system: K. pneumoniae JS-123
Description: as §1, §2, §3

[1] = system: E. coli MCR-1 (clinical isolate); conditions: Ec MCR-1; broth microdilution (CLSI), MHB, 16 h 37 °C, three technical replicates
Description: as §1, §2, §3

E. coli ATCC 25922 MCR-1 = conditions: Ec ATCC 25922 MCR-1; broth microdilution (CLSI), MHB, 16 h 37 °C, three technical replicates
Description: as §1, §2, §3

A. baumannii 2018-006 = system: A. baumannii 2018-006
Description: as §1, §2, §3

Compound: CC[C@H](C)[C@@H]1NC(=O)[C@@H](NC(=O)[C@H](Cc2c[nH]c3ccccc23)NC(=O)[C@@H](CCCN)NC(=O)CNC(=O)[C@H](CCCN)NC(=O)[C@@H](CCCN)NC(=O)[C@@H](Cc2c[nH]c3ccccc23)NC(=O)[C@@H](Cc2ccc(O)cc2)NC(=O)[C@@H](CO)NC(=O)CCCCCC(C)C)[C@@H](C)NC(=O)CNC(=O)CNC(=O)[C@H](CC(N)=O)NC1=O [MeDap9-Lat (8), MeDap9-laterocidine]
- MIC (K. pneumoniae 2048; 2048, 16 h): 2 µg/mL (≈ 1.25 µM)
- MIC (E. coli EQAS MCR-2): 0.5 µg/mL (≈ 0.312 µM)
- MIC (P. aeruginosa M-120; M-120, 16 h): 1 µg/mL (≈ 0.623 µM)
- MIC (E. coli ATCC 25922; ATCC 25922, 16 h): 1 µg/mL (≈ 0.623 µM)
- MIC (P. aeruginosa NRZ-03961; NRZ-03961, 16 h): 2 µg/mL (≈ 1.25 µM)
- MIC (A. baumannii MDR): 4 µg/mL (≈ 2.49 µM)
- MIC (K. pneumoniae ATCC 11228; ATCC 11228, 16 h): 1 to 2 µg/mL
- MIC (P. aeruginosa PAO1; PAO1, 16 h): 2 µg/mL (≈ 1.25 µM)
- MIC (A. baumannii ATCC 17961; ATCC 17961, 16 h): 2 µg/mL (≈ 1.25 µM)
- MIC (A. baumannii ATCC 17978; ATCC 17978, 16 h): 2 µg/mL (≈ 1.25 µM)
- MIC (P. aeruginosa ATCC 27853; ATCC 27853, 16 h): 0.5 µg/mL (≈ 0.312 µM)
- MIC (S. aureus USA300; USA300, 16 h): 32 µg/mL (≈ 20 µM)
- MIC (K. pneumoniae ATCC 13883; ATCC 13883, 16 h): 1 to 2 µg/mL
- MIC (K. pneumoniae JS-123; JS-123, 16 h): 0.5 µg/mL (≈ 0.312 µM)
- MIC [1]: 0.5 µg/mL (≈ 0.312 µM)
- MIC (E. coli ATCC 25922 MCR-1): 1 µg/mL (≈ 0.623 µM)
- MIC (A. baumannii 2018-006; 2018-006, 16 h): 4 µg/mL (≈ 2.49 µM)

Compound: CC[C@H](C)[C@@H]1NC(=O)[C@@H](NC(=O)[C@H](Cc2c[nH]c3ccccc23)NC(=O)[C@@H](CCCN)NC(=O)CNC(=O)[C@H](CCCN)NC(=O)[C@@H](CCCN)NC(=O)[C@@H](Cc2c[nH]c3ccccc23)NC(=O)[C@@H](Cc2ccc(O)cc2)NC(=O)[C@@H](CO)NC(=O)CCCCCC(C)C)COC(=O)CNC(=O)CNC(=O)[C@H](CC(N)=O)NC1=O [Ser9-Lat (4), Ser9-Laterocidine] ({Octanoyl(7-Me)}-[dS][dY][dW][dOrn][Orn]G[dOrn]WSINGG; ester 9-C)
- MIC (K. pneumoniae 2048; 2048, 16 h): 2 µg/mL (≈ 1.26 µM)
- MIC (P. aeruginosa M-120; M-120, 16 h): 1 µg/mL (≈ 0.629 µM)
- MIC (E. coli ATCC 25922; ATCC 25922, 16 h): 0.5 µg/mL (≈ 0.314 µM)
- MIC (P. aeruginosa NRZ-03961; NRZ-03961, 16 h): 1 to 2 µg/mL
- MIC (K. pneumoniae ATCC 11228; ATCC 11228, 16 h): 1 to 2 µg/mL
- MIC (P. aeruginosa PAO1; PAO1, 16 h): 2 µg/mL (≈ 1.26 µM)
- MIC (A. baumannii ATCC 17961; ATCC 17961, 16 h): 4 µg/mL (≈ 2.51 µM)
- MIC (A. baumannii ATCC 17978; ATCC 17978, 16 h): 2 µg/mL (≈ 1.26 µM)
- MIC (P. aeruginosa ATCC 27853; ATCC 27853, 16 h): 0.5 to 1 µg/mL
- MIC (S. aureus USA300; USA300, 16 h): >64 µg/mL
- MIC (K. pneumoniae ATCC 13883; ATCC 13883, 16 h): 1 to 2 µg/mL
- MIC (K. pneumoniae JS-123; JS-123, 16 h): 0.5 µg/mL (≈ 0.314 µM)
- MIC (A. baumannii 2018-006; 2018-006, 16 h): 4 µg/mL (≈ 2.51 µM)

Compound: colistin [reference compound]
- MIC (K. pneumoniae 2048; Kp 2048, broth microdilution (CLSI), MHB, 16 h 37 °C, three technical replicates): 0.5 to 1 µg/mL
- MIC (E. coli EQAS MCR-2): 4 µg/mL
- MIC (P. aeruginosa M-120; Pa M-120, broth microdilution (CLSI), MHB, 16 h 37 °C, three technical replicates): <0.25 µg/mL
- MIC (E. coli ATCC 25922; Ec ATCC 25922, broth microdilution (CLSI), MHB, 2 × 10^5 CFU/mL, 16 h 37 °C, visual read-out, three technical replicates): 0.25 to 0.5 µg/mL
- MIC (P. aeruginosa NRZ-03961; Pa NRZ-03961, broth microdilution (CLSI), MHB, 16 h 37 °C, three technical replicates): 0.25 to 0.5 µg/mL
- MIC (A. baumannii MDR): <0.25 µg/mL
- MIC (K. pneumoniae ATCC 11228; Kp ATCC 11228, broth microdilution (CLSI), MHB, 16 h 37 °C, three technical replicates): <0.25 µg/mL
- MIC (P. aeruginosa PAO1; Pa PAO1, broth microdilution (CLSI), MHB, 16 h 37 °C, three technical replicates): 0.25 to 0.5 µg/mL
- MIC (A. baumannii ATCC 17961; Ab ATCC 17961, broth microdilution (CLSI), MHB, 16 h 37 °C, three technical replicates): <0.25 µg/mL
- MIC (A. baumannii ATCC 17978; Ab ATCC 17978, broth microdilution (CLSI), MHB, 16 h 37 °C, three technical replicates): <0.25 µg/mL
- MIC (P. aeruginosa ATCC 27853; Pa ATCC 27853, broth microdilution (CLSI), MHB, 16 h 37 °C, three technical replicates): <0.25 µg/mL
- MIC (S. aureus USA300; Sa USA300, broth microdilution (CLSI), MHB, 16 h 37 °C, three technical replicates): >64 µg/mL
- MIC (K. pneumoniae ATCC 13883; Kp ATCC 13883, broth microdilution (CLSI), MHB, 16 h 37 °C, three technical replicates): 0.25 µg/mL
- MIC (K. pneumoniae JS-123; Kp JS-123, broth microdilution (CLSI), MHB, 16 h 37 °C, three technical replicates): <0.25 µg/mL
- MIC [1]: 2 to 4 µg/mL
- MIC (A. baumannii 2018-006; Ab 2018-006, broth microdilution (CLSI), MHB, 16 h 37 °C, three technical replicates): <0.25 µg/mL
